The record followed here is patent US9840498B2, “Substituted quinazolin-4-one derivatives” (NOVARTIS AG, priority 2013, dated 2017).

Common to all, as to conditions: enzymatic assay
The target in one experiment is PI3K alpha (Homo sapiens (Human), UniProt P42336). Kind of experiment: Biochemical assay for PI3Kalpha (Kinase-Glo format). The method, then: 1.1 Generation of Gene Constructs, Protein Expression and Purification
For the enzymatic assays, the preparation of PI3K gene constructs, protein expression and purification for HTS are described in WO2012/004299.
1.2 Biochemical Assays for PI3Kalpha, PI3Kbeta (Kinase-Glo Format)
The kinase reaction is performed in a final volume of 50 μl per well of a half area COSTAR, 96 well plate. The final concentrations of ATP and phosphatidyl inositol in the assay are 5 μM and 6 μg/mL, respectively. The reaction is started by the addition of PI3 kinase, e.g. PI3 kinase α.
The components of the assay are added per well as follows: • 10 μl test compound in 5% DMSO per well in […]. • Total activity is determined by addition 10 μl of 5% vol/vol DMSO in the first 4 wells of column 1 and the last 4 wells of column 12. • The background is determined by addition of 10 μM control compound to the last 4 wells of column 1 and the first 4 wells of column 12. • 2 mL ‘Assay mix’ are prepared per plate: • 1.912 mL of HEPES assay buffer • 8.33 μl of 3 mM stock of ATP giving a final concentration of 5 μM per well • 1 μl of [^33P]ATP on the activity date giving 0.05 μCi per well • 30 μl of 1 mg/mL PI stock giving a final concentration of 6 μg/mL per well • 5 μl of 1 M stock MgCl2 giving a final concentration of 1 mM per well • 20 μl of the assay mix are added per well. • 2 mL ‘Enzyme mix’ are prepared per plate (x* μl PI3 kinase p110α in 2 mL of kinase buffer). The ‘Enzyme mix’ is kept on ice during addition to the assay plates. * The volume of enzyme is dependent on the enzymatic activity of the batch in use. • 20 μl ‘Enzyme mix’ are added/well to start the reaction. • The plate is then incubated at room temperature for 90 minutes. • The reaction is terminated by the addition of 50 μl WGA-SPA bead (wheat germ agglutinin-coated Scintillation Proximity Assay beads) suspension per well. • The assay plate is sealed using TopSeal-S (heat seal for polystyrene microplates, PerkinElmer LAS [Deutschland] GmbH, Rodgau, Germany) and incubated at room temperature for at least 60 minutes. • The assay plate is then centrifuged at 1500 rpm for 2 minutes using the Jouan bench top centrifuge (Jouan Inc., Nantes, France). • The assay plate is counted using a Packard TopCount, each well being counted for 20 seconds.
In a more preferred assay, the kinase reaction is performed in a final volume of 10 μl per well of a low volume non-binding CORNING, 384 well black plate (Cat. No. #3676). The final concentrations of ATP and phosphatidyl inositol (PI) in the assay are 1 μM and 10 μg/mL, respectively. The reaction is started by the addition of ATP.
The components of the assay are added per well as follows: […]
Background: In Kinase-Glo more light means more ATP remaining.

In the next experiment the target is PI3K gamma (Homo sapiens (Human), UniProt P48736). Kind of experiment: Biochemical assay for PI3Kgamma (Adapta TR-FRET format). The source says:
(§1) For the enzymatic assays, the preparation of PI3K gene constructs, protein expression and purification for HTS are described in WO2012/004299. […] The TR-FRET Adapta™ Universal Kinase Assay Kit was purchased from Invitrogen Corporation (Carlsbad/CA, USA) (Cat. No. PV5099). The kit contains the following reagents: Adapta Eu-anti-ADP Antibody (Europium labeled anti-ADP antibody in HEPES buffered saline, Cat. No. PV5097), Alexa Fluor® 647-labeled ADP tracer (Alexa Fluor® 647-labeled ADP tracer in HEPES buffered saline, Cat. No. PV5098), proprietary TR-FRET dilution buffer pH 7.5 (Cat. No. PV3574). PIK3CD substrate Phosphatidylinositol was obtained from Invitrogen (vesicules consisting of 2 mM PI in 50 mM HEPES pH7.5; Cat. No. PV5371). PIK3CG substrate Phosphatidylinositol-4,5-bisphosphate (PIP(4,5)2 was obtained from Invitrogen (PIP2:PS large unilamellar vesicules consisting of 1 mM PI P2: 19 mM PS in 50 mM HEPES pH7.5, 3 mM MgCl2, 1 mM EGTA; Cat. No. PV5100). Time-Resolved Fluorescence Resonance Energy Transfer (TR-FRET) is a technology based on energy transfer between two adjacent dyes, from an excited electron in one dye (the donor) to an electron of an adjacent dye (the acceptor) through resonance, then released as a photon. This energy transfer is detected by an increase in the fluorescence emission of the acceptor, and a decrease in the fluorescence emission of the donor. TR-FRET assays for protein kinases use a long-lifetime lanthanide Terbium or Europium chelates as the donor species which overcome interference from compound autofluorescence or light scatter from precipitated compounds, by introducing a delay after excitation by a flashlamp excitation source. Results are often expressed as a ratio of the intensities of the acceptor and donor fluorophores. The ratiometric nature of such a value corrects for differences in assay volumes between wells, as well as corrects for quenching effects due to colored compounds. The Adapta™ assay can be divided into two phases: a kinase reaction phase and an ADP detection phase. In the kinase reaction phase, all kinase reaction components are added to the well and the reaction is allowed to incubate for a set period of time specific for each kinase. After the reaction, a detection solution of Eu-labeled anti-ADP antibody, Alexa Fluor® 647-labeled ADP tracer, and EDTA (to stop the kinase reaction) are added to the assay well. ADP formed by the kinase reaction will displace the Alexa Fluor® 647-labeled ADP tracer from the antibody, resulting in a decrease in TR-FRET signal. In the presence of an inhibitor, the amount of ADP formed by the kinase reaction is reduced, and the resulting intact antibody-tracer interaction maintains a high TR-FRET signal. In the Adapta™ assay, the donor (Europium-anti-ADP antibody) is excited at 340 nm and will transfer its energy to the acceptor (Alexa Fluor® 647-labeled ADP tracer). The emission from the Alexa Fluor® 647 can be monitored with a filter centered at 665 nm because it is located between the emission peaks of the donor, which is measured at 615/620 nm. 50 nL of compound dilutions were dispensed onto white 384-well small volume polystyrene plate as described in section 2.2. Then 5 μL of PI3Kgamma and PI3Kdelta and lipid substrate (PI or PIP2:PS) followed by 5 μL of ATP (final assay volume 10 μL) are incubated at RT. […] Reactions were stopped with 5 μL of a mixture of EDTA containing the Eu-labeled anti-ADP antibody and the Alexa Fluor® 647-labeled ADP tracer in TR-FRET dilution buffer (proprietary to IVG). Plates are read 15 to 60 mins later in a Synergy2 reader using an integration time of 0.4 seconds and a delay of 0.05 seconds. […] The control for the 0% inhibition was given by the solvent vehicle of the compounds (90% DMSO in H2O). Data are analyzed using Excel fit software or Graphpad Prism. EC50 values were derived by fitting a sigmoidal dose-response curve to a plot of assay readout over inhibitor concentration. […]
In general terms: In TR-FRET formats the signal depends on donor and acceptor labels being close together.

The next experiment deals with PI3K delta (Homo sapiens (Human), UniProt O00329). Kind of experiment: Biochemical assay for PI3Kdelta (Adapta TR-FRET format).
Text: as §1

Chain of PI3K alpha (P42336 21-1068): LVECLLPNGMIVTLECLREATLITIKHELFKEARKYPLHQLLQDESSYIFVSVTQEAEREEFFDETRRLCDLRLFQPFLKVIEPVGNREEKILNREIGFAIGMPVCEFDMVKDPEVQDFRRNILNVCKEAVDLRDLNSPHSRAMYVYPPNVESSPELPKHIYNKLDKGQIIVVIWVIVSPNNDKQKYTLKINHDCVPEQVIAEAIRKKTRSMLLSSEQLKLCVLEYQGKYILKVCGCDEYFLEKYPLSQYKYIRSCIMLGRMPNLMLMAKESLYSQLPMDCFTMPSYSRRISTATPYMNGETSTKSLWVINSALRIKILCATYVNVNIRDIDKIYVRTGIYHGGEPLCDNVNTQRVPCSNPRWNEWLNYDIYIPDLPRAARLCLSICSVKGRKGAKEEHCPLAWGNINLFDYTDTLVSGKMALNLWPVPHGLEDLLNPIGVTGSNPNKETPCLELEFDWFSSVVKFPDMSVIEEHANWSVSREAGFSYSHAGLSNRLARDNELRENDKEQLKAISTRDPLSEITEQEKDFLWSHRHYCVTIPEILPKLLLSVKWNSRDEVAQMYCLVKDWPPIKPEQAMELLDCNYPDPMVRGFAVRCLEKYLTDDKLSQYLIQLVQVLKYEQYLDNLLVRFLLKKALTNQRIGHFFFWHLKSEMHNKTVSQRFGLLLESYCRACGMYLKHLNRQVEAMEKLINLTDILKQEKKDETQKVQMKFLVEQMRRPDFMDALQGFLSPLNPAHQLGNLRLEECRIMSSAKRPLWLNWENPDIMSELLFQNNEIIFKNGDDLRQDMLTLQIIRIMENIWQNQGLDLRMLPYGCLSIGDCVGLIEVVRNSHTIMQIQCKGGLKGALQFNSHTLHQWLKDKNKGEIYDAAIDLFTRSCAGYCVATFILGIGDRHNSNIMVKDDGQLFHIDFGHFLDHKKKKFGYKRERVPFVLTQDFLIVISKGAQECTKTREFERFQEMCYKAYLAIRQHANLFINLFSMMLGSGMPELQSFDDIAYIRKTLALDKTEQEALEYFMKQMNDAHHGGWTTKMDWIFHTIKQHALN
Chain of PI3K alpha (P27986 461-568 partner): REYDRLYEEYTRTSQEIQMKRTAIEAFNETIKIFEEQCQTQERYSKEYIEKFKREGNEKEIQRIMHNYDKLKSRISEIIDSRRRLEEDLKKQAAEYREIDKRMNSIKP
Chain of PI3K gamma (P48736 whole entry): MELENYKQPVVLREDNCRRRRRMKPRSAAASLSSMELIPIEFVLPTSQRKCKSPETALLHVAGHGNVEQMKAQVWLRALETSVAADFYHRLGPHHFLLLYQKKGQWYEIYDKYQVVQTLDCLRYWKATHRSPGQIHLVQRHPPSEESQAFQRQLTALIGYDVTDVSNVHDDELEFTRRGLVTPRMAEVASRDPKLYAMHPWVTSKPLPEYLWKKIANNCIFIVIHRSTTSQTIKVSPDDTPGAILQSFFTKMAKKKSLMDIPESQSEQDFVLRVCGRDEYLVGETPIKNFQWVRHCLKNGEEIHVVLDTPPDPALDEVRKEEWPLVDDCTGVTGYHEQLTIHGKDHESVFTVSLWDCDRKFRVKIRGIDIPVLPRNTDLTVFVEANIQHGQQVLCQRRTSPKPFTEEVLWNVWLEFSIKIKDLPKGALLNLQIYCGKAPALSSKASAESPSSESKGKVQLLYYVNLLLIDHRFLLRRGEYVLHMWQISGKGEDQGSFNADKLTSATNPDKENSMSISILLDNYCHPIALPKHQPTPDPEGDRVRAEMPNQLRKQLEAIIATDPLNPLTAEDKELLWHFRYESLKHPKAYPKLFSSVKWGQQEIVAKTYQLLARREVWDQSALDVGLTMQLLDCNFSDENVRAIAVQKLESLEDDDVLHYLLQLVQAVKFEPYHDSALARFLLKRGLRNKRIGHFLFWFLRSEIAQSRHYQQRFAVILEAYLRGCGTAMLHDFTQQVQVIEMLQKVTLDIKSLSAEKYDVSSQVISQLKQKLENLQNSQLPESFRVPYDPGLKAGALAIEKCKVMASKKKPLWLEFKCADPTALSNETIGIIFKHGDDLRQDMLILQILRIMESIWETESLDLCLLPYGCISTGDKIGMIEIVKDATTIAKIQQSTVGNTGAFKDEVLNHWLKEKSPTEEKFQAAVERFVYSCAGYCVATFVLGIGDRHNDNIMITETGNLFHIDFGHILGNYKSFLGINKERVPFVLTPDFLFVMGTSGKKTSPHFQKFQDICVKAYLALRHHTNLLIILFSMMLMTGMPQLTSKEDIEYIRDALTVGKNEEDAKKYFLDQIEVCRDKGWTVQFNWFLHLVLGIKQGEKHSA
Chain of PI3K delta (O00329 2-1044): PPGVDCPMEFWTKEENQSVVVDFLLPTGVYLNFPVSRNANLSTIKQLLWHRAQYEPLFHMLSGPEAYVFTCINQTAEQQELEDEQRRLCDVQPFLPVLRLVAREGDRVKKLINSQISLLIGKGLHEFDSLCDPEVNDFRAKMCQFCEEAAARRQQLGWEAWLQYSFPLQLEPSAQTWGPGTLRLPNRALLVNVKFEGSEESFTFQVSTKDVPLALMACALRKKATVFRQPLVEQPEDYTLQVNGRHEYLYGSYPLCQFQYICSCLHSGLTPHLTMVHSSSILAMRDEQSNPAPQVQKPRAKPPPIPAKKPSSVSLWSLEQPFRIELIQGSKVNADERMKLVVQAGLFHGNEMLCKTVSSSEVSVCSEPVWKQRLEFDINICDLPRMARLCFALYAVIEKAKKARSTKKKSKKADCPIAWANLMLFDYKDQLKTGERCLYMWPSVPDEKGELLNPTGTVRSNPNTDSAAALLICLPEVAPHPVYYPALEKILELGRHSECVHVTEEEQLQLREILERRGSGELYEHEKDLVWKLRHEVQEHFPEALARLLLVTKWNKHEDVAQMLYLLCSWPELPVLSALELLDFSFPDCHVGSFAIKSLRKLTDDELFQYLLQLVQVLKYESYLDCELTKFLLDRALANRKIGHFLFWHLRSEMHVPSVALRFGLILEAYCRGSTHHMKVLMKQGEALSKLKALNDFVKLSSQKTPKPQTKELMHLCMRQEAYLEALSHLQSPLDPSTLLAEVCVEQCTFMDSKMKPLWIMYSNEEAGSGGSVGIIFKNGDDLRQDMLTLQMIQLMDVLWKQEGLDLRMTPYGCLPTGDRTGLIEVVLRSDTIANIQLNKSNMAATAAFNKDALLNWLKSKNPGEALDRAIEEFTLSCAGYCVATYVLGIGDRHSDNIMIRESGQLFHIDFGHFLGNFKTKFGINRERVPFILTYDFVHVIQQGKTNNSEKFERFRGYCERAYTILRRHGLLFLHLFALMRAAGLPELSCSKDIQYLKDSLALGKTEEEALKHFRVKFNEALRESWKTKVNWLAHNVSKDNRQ
Chain of PI3K delta (P27986 461-568 partner): as the sequence (P27986 461-568 partner) above

With `COc1ncc(-c2cccc3nc([C@@H]4C[C@H](OC)CN4c4nc(N)nc(C)c4C#N)n(-c4ccccc4)c(=O)c23)cn1` [Example 12, 2-Amino-4-((2S,4S)-4-methoxy-2-(5-(2-methoxypyrimidin-5-yl)-4-oxo-3-phenyl-3,4-dihydroquinazolin-2-yl)pyrrolidin-1-yl)-6-methylpyrimidine-5-carbonitrile], the values for the 50% inhibitory concentration (IC50) on PI3K alpha, on PI3K gamma and at PI3K delta were 1.2 µM, 0.21 µM and 0.005 µM, respectively.
For `Cc1nc(N)nc(N2CCC[C@H]2c2nc3cccc(-c4cnn(C)c4)c3c(=O)n2-c2ccccc2)c1C#N` [Example 13, (S)-2-Amino-4-methyl-6-(2-(5-(1-methyl-1H-pyrazol-4-yl)-4-oxo-3-phenyl-3,4-dihydroquinazolin-2-yl)pyrrolidin-1-yl)pyrimidine-5-carbonitrile], the figures for the half-maximal inhibitory concentration (IC50) against PI3K alpha, at PI3K gamma and at PI3K delta were 0.26 µM, 0.12 µM and 0.007 µM, respectively.
Consider `Cc1ccccc1-n1c([C@@H]2CCCN2c2ncnc(N)c2C#N)nc2cccc(-c3cnn(C)c3)c2c1=O` [Example 14, (S)-4-Amino-6-(2-(5-(1-methyl-1H-pyrazol-4-yl)-4-oxo-3-(otolyl)-3,4-dihydroquinazolin-2-yl)pyrrolidin-1-yl)pyrimidine-5-carbonitrile], for which the half-inhibitory concentration (IC50) at PI3K alpha is 0.92 µM; at PI3K gamma, 0.33 µM; on PI3K delta, 0.074 µM.
On the same counts, the results for `Cn1cnc(-c2cccc3nc([C@@H]4CCCN4c4ncnc(N)c4C#N)n(-c4ccccc4)c(=O)c23)c1` [Example 15, (S)-4-Amino-6-(2-(5-(1-methyl-1H-imidazol-4-yl)-4-oxo-3-phenyl-3,4-dihydroquinazolin-2-yl)pyrrolidin-1-yl)pyrimidine-5-carbonitrile] are over 10 µM, over 10 µM and over 10 µM.
The like results for `Cc1nc(N)nc(N2C[C@@H](O)C[C@H]2c2nc3cccc(-c4cnn(C)c4)c3c(=O)n2-c2ccccc2)c1C#N` [Example 16, 2-Amino-4-((2S,4S)-4-hydroxy-2-(5-(1-methyl-1H-pyrazol-4-yl)-4-oxo-3-phenyl-3,4-dihydroquinazolin-2-yl)pyrrolidin-1-yl)-6-methylpyrimidine-5-carbonitrile] were, in that order, 0.18 µM, 0.048 µM and 0.007 µM.
Turning to `Cc1nc(N)nc(N2CCC[C@H]2c2nc3cccc(-c4cncnc4)c3c(=O)n2-c2ccccc2)c1C#N` [Example 17, (S)-2-Amino-4-methyl-6-(2-(4-oxo-3-phenyl-5-(pyrimidin-5-yl)-3,4-dihydroquinazolin-2-yl)pyrrolidin-1-yl)pyrimidine-5-carbonitrile], the values for the IC50 on PI3K alpha, on PI3K gamma and at PI3K delta were 1.2 µM, 0.94 µM and 0.021 µM, respectively.
In the case of `COc1cncc(-c2cccc3nc([C@@H]4CCCN4c4nc(N)nc(C)c4C#N)n(-c4ccccc4)c(=O)c23)c1` [Example 18, (S)-2-Amino-4-(2-(5-(5-methoxypyridin-3-yl)-4-oxo-3-phenyl-3,4-dihydroquinazolin-2-yl)pyrrolidin-1-yl)-6-methylpyrimidine-5-carbonitrile], the figures for the IC50 on PI3K alpha, on PI3K gamma and on PI3K delta were 0.056 µM, 0.089 µM and 0.014 µM, respectively.
On to `Cc1ncc(-c2cccc3nc([C@@H]4CCCN4c4nc(N)nc(C)c4C#N)n(-c4ccccc4)c(=O)c23)cn1` [Example 19, (S)-2-Amino-4-methyl-6-(2-(5-(2-methylpyrimidin-5-yl)-4-oxo-3-phenyl-3,4-dihydroquinazolin-2-yl)pyrrolidin-1-yl)pyrimidine-5-carbonitrile], for which the 50% inhibitory concentration (IC50) stood at 0.82 µM on PI3K alpha, 0.39 µM at PI3K gamma and 0.017 µM at PI3K delta.
Turning to `Cc1nc(N)nc(N2CCC[C@H]2c2nc3cccc(-c4cccnc4)c3c(=O)n2-c2ccccc2)c1C#N` [Example 20, (S)-2-Amino-4-methyl-6-(2-(4-oxo-3-phenyl-5-(pyridin-3-yl)-3,4-dihydroquinazolin-2-yl)pyrrolidin-1-yl)pyrimidine-5-carbonitrile], the IC50 stood at 0.26 µM at PI3K alpha, 0.14 µM at PI3K gamma and 0.015 µM on PI3K delta.

For orientation: IC50 means the concentration that gives 50% inhibition.
